Values quoted from earlier work, collected in US20060018956A1, “Dermal application system for aminolevulinic acid-derivatives” (priority 2002, published 2006).

Conditions: fresh ALA solution, approximate physiological value of 8, after just two weeks

- undecomposed active substance: approx. 10%
SMILES: NCC(=O)CCC(=O)O [ALA, 5-aminolaevulinic acid]
